Here are results for five molecules from patent publication US9249125B2, “Pyrazole derivatives as p38 MAP inhibitors” (RESPIVERT LIMITED, priority 2012, dated 2016).

The target in data set [1] is T1, p38 MAPKα (Homo sapiens (Human), UniProt Q16539). The experiment in a line: p38 MAPKα enzyme inhibition (FRET, Z-LYTE). It is filed as biochemical.
Data set [2] has as its target cSrc (Homo sapiens (Human), UniProt P12931). The experiment in a line: c-Src enzyme inhibition (FRET, Z-LYTE). The format is biochemical. Summed up:
(§1)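 Z-LYTE FRET kinase assay: enzyme (3000 or 2000 ng/mL stock, respectively) preincubated 2 h at RT with compound (4–0.004 μg/mL stocks), then FRET peptide plus ATP (800 μM stock for c-Src, 60 μM for Syk) added for 1 h. Protease development 1 h; phosphorylation from coumarin/fluorescein emission ratio.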

For data set [3], the target named is T2, Syk (Homo sapiens (Human), UniProt P43405). The experiment in a line: Syk enzyme inhibition (FRET, Z-LYTE). The format is biochemical. A digest of the protocol:
as §1

Data set [4] addresses T3, GSK3α (Homo sapiens (Human), UniProt P49840). The experiment in a line: GSK 3α enzyme inhibition (FRET, Z-LYTE). It is filed as biochemical. Summed up:
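Phosphorylation was read as the donor (coumarin) to acceptor (fluorescein) ratio after a 1 hr protease step destroying non-phosphorylated peptide. Before this, compound (4–0.004 μg/mL stocks) sat 2 hr at RT with GSK3α (500 ng/mL stock), followed by 1 hr kinase reaction with 8 μM peptide and 40 μM ATP stocks.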

In data set [5] the test system is LPS-induced TNFα release in d-U937 cells. The experiment in a line: LPS-induced TNFα release in d-U937 cells. It is filed as cell-based. The following applies: Homo sapiens, dU937, relative to 10 μg/mL BIRB796, read-out: LPS Induced Release of Cytokine in d-937 Cells TNFα REC50. Summed up: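 Read-out: TNFα and IL-8 released into supernatant, sandwich ELISA, expressed as inhibition versus vehicle at each dose and fitted to give REC50. Cells were PMA-differentiated U937 (100 ng/mL, 48–72 hr), compound-exposed 2 hr before a 4 hr LPS stimulus (0.1 μg/mL).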

Data set [6] deals with LPS-induced IL-8 release in d-U937 cells. The experiment in a line: LPS-induced IL-8 release in d-U937 cells. It is filed as cell-based. The note with it: Homo sapiens, dU937, read-out: LPS Induced Release of Cytokine in d-937 Cells IL-8 IC50. Summed up: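 Human monocytic U937 cells were differentiated to macrophage-type cells with PMA (100 ng/mL) for 48 to 72 hr, pre-treated with test compound for 2 hr, then stimulated 4 hr with E. coli O111:B4 LPS (0.1 μg/mL). Supernatant TNFα and IL-8 were measured by sandwich ELISA; REC50 came from concentration-response curves.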

Data set [7] relates to Poly I:C-induced ICAM-1 expression in BEAS2B cells. The experiment in a line: Poly I:C-induced ICAM-1 expression in BEAS2B cells. The note with it: Homo sapiens, BEAS-2B, read-out: Poly IC induced ICAM1 in BEAS2B IC50. The format is cell-based. Summed up:
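Cell-based ELISA read at 450 nm minus 655 nm, divided by crystal violet OD595 to normalize for cell number, gave ICAM-1 levels. Readout was taken 18 hr after poly I:C (1 μg/mL, Oligofectamine) transfection of human bronchial BEAS2B cells pretreated 2 hr with test compound.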

The test system of data set [8] is d-U937 cells. Put plainly: Cell viability: MTT assay. The following applies: 1 μg/mL. The format is cell-based, human. A digest of the protocol:
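MTT read-out (1 h, absorbance 550 nm) on d-U937 cells after pre-incubation with 1 or 10 μg/mL compound under two regimes: 4 h, 5% FCS, or 24 h, 10% FCS RPMI1640. Values are percent loss of viability relative to vehicle (0.5% DMSO), so increases are reported as negative.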
(In general: Formazan colour is commonly taken as a measure of viable cells.)

Data set [9] has as its system PBMC cells. Put plainly: Cell mitosis assay. It is filed as cell-based, human. How it is done:
Peripheral blood mononucleocytes (PBMCs) from healthy subjects are separated from whole blood (Quintiles, London, UK) using a density gradient (Histopaque-1077, Sigma-Aldrich, Poole, UK). The PBMCs (3 million cells per sample) are subsequently treated with 2% PHA (Sigma-Aldrich, Poole, UK) for 48 hr, followed by a 20 hr exposure to varying concentrations of test compounds. At 2 hr before collection, PBMCs are treated with demecolcine (0.1 μg/mL) (Invitrogen, Paisley, UK,) to arrest cells in metaphase. To observe mitotic cells, PBMCs are permeabilised and fixed by adding Intraprep (50 μL) (Beckman Coulter, France), and stained with anti-phospho-histone 3 (0.26 ng/L) (#9701; Cell Signalling, Danvers, Mass.) and propidium iodide (1 mg/mL) (Sigma-Aldrich, Poole, UK,) as previously described (Muehlbauer P. A. and Schuler M. J., Mutation Research, 2003, 537:117-130). Fluorescence is observed using an ATTUNE flow cytometer (Invitrogen, Paisley, UK), gating for lymphocytes.

Data set [10] deals with T1, p38 MAPKα. The experiment in a line: Enzyme binding assay (Kinomescan) p38 MAPKα. The following applies: read-out: % Inhibition for kinase binding at 500 nM p38 MAPKα. The procedure: (§2) The kinase enzyme binding activities of compounds disclosed herein were determined using a proprietary assay which measures active site-directed competition binding to an immobilized ligand (Fabian, M. A. et al., Nature Biotechnol., 2005, 23:329-336). These assays were conducted by DiscoverX (formerly Ambit; San Diego, Calif.). The percentage inhibition produced by incubation with a test compound is calculated relative to the non-inhibited control.

In data set [11] the target is p38 MAPKγ (Homo sapiens (Human), UniProt P53778). Put plainly: Enzyme binding assay (Kinomescan) p38 MAPKγ. The note with it: read-out: % Inhibition for kinase binding at 500 nM p38 MAPKγ. How it is done:
(§3) These assays were conducted by DiscoverX (formerly Ambit; San Diego, Calif.). The percentage inhibition produced by incubation with a test compound is calculated relative to the non-inhibited control.

Data set [12] has as its target HCK (Homo sapiens (Human), UniProt P08631). Put plainly: Enzyme binding assay (Kinomescan) HCK. The following applies: read-out: % Inhibition for kinase binding at 500 nM HCK. How it is done:
as §2

For data set [13], the target named is T2, Syk. The experiment in a line: Enzyme binding assay (Kinomescan) Syk. The note with it: read-out: % Inhibition for kinase binding at 500 nM Syk. The procedure:
as §2

Data set [14] deals with T3, GSK3α. Put plainly: Enzyme binding assay (Kinomescan) GSK3α. The following applies: read-out: % Inhibition for kinase binding at 500 nM GSK3α. The procedure:
as §2

Data set [15] addresses B-Raf (Homo sapiens (Human), UniProt P15056). Put plainly: Enzyme binding assay (Kinomescan) B-Raf. The note with it: read-out: % Inhibition for kinase binding at 500 nM B-Raf. The procedure:
as §3

Data set [16] relates to LPS-induced airways neutrophilia in mice. The experiment in a line: LPS-induced neutrophil accumulation in mice. It is filed as in vivo. The following applies: Test Substance at 0.2 mg/mL, intra tracheal, dosed 8 hr pre-LPS challenge. The procedure:
Non-fasted Balb/c mice are dosed by the intra tracheal route with either vehicle, or the test substance at the indicated times (within the range 2-8 hr) before stimulation of the inflammatory response by application of an LPS challenge. At T=0, mice are placed into an exposure chamber and exposed to LPS (7.0 mL, 0.5 mg/mL solution in PBS) for 30 min). After a further 8 hr the animals are anesthetized, their tracheas cannulated and BALF extracted by infusing and then withdrawing from their lungs 1.0 mL of PBS via the tracheal catheter. Total and differential white cell counts in the BALF samples are measured using a Neubaur haemocytometer. Cytospin smears of the BALF samples are prepared by centrifugation at 200 rpm for 5 min at RT and stained using a DiffQuik stain system (Dade Behring). Cells are counted using oil immersion microscopy. Data for neutrophil numbers in BAL are shown as mean±S.E.M. (standard error of the mean). The percentage inhibition of neutrophil accumulation is calculated for each treatment relative to vehicle treatment.

The term IC50 denotes the point on the concentration scale where inhibition reaches its midpoint. What is called inhibition is the drop in the measured response relative to a control, in per cent.

T3 sequence (P49840 whole entry): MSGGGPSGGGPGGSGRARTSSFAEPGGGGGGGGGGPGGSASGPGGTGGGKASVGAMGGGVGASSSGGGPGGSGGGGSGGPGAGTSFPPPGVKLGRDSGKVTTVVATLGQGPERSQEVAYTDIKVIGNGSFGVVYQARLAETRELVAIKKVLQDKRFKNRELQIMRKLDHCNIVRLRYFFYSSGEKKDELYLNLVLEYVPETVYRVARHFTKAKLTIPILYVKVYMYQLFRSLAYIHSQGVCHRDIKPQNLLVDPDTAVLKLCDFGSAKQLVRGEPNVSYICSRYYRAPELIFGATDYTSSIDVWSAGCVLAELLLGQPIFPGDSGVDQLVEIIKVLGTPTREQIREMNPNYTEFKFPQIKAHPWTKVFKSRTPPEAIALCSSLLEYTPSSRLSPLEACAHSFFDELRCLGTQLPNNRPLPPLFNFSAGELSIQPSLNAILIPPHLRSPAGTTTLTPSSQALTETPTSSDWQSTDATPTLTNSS
cSrc, sequence (P12931 whole entry, looked up): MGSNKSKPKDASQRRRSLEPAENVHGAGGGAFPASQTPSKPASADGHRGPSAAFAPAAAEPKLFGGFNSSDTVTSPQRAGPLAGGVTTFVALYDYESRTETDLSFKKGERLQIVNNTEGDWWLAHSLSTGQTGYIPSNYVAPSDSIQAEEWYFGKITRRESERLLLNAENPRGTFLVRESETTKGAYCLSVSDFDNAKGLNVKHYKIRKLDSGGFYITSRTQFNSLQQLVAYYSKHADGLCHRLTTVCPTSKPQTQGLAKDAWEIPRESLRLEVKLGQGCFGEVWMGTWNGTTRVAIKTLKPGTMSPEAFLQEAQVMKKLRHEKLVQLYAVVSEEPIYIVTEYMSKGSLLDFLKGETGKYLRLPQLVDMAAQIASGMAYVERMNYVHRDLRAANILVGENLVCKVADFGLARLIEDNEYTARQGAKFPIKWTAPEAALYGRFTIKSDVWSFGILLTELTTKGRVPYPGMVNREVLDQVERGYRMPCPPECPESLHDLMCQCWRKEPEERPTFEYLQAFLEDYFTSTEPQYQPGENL
T1 sequence (Q16539 whole entry): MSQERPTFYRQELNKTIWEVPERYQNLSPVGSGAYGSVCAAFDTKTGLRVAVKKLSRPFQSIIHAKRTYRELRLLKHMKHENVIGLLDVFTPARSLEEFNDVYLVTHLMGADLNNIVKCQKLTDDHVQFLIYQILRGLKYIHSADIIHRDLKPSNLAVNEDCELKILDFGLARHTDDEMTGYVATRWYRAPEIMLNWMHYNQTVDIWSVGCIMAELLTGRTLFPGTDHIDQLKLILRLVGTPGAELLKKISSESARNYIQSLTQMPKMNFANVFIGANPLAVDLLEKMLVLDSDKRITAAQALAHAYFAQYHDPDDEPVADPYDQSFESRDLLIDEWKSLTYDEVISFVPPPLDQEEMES
HCK, sequence (P08631 22-526): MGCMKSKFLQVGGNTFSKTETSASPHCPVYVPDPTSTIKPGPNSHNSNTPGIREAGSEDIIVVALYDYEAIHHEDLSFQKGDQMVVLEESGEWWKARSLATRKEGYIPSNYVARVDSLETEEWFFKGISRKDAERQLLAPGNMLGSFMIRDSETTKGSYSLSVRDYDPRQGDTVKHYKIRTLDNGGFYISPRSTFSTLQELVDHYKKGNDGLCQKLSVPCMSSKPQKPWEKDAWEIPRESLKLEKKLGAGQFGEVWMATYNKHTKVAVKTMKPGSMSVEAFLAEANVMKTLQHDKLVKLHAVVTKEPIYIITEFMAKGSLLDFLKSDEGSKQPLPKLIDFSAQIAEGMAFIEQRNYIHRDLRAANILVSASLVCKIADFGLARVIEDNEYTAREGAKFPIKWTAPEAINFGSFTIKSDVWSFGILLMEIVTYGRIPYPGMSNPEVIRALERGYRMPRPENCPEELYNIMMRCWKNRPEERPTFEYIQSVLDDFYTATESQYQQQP
B-Raf, sequence (P15056 whole entry): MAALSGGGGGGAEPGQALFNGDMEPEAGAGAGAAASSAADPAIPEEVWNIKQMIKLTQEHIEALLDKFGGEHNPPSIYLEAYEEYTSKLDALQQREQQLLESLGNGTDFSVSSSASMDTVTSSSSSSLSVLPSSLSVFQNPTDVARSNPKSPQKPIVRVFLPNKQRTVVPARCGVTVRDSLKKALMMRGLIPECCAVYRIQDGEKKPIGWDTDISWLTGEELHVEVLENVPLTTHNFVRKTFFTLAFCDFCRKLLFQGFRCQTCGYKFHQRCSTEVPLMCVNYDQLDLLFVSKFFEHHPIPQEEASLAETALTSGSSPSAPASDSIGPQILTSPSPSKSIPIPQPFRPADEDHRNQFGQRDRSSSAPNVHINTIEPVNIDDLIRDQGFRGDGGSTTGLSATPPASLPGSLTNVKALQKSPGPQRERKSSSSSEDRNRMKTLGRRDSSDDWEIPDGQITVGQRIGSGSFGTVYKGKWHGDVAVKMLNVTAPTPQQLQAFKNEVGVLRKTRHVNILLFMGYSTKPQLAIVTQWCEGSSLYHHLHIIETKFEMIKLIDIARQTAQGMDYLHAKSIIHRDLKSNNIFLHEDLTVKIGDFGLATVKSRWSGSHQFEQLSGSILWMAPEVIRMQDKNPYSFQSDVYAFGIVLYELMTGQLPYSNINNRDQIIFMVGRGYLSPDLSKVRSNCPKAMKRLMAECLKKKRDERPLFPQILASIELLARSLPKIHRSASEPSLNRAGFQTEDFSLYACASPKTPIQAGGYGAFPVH
p38 MAPKγ, sequence (P53778 whole entry): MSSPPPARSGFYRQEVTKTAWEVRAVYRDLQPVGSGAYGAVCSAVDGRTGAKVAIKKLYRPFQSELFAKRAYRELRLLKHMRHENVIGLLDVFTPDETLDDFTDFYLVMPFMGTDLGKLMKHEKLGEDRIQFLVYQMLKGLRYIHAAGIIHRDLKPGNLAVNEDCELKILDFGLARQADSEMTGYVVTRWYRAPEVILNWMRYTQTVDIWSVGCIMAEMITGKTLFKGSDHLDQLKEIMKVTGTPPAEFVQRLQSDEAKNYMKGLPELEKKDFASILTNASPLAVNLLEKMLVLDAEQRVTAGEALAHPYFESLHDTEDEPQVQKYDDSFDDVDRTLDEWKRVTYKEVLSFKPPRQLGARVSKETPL

Take `CC(C)(C)c1cc(NC(=O)Nc2ccc(Oc3ccnc(Nc4ccc5c(c4)NC(=O)C5)n3)c3ccccc23)n(-c2ccc(OCCN3CCOCC3)nc2)n1` [Example 90, 1-(3-(tert-butyl)-1-(6-(2-morpholinoethoxy)pyridin-3-yl)-1H-pyrazol-5-yl)-3-(4-((2-((2-oxoindolin-6-yl)amino)pyrimidin-4-yl)oxy)naphthalen-1-yl)urea]: the half-inhibitory concentration (IC50) in data set [1] is 0.044 µM; in data set [2], less than 0.001 µM; in data set [3], less than 0.001 µM; in [4], 0.267 µM; in data set [6], 0.0041 µM; in data set [7], 0.0146 µM. Moreover, in [5], the EC50 was found to be 0.0016 µM. For the same molecule, the “MTT Assay Cell viability at time point in d-U937 cells 4 h” value in data set [8] was “−ve (−ve and +ve indicate that the value is below and above respectively, the no significant effect threshold, defined as 30% inhibition at 1 μg/mL at the time point indicated.)”. In addition, the “MTT Assay Cell viability at time point in d-U937 cells 24 h” value in data set [8] was “−ve (−ve and +ve indicate that the value is below and above respectively, the no significant effect threshold, defined as 30% inhibition at 1 μg/mL at the time point indicated.)”. For the same molecule, the “Mitosis Assay % inhibition in PBMC cells at 5 μg/mL” value (“Mitosis Assay % inhibition” for short) in data set [9] came out at 15.4%.

`CC(C)(C)c1cc(NC(=O)Nc2ccc(Oc3cc(Nc4ccc5[nH]ncc5c4)ncn3)c3ccccc23)n(-c2ccc(OCCN3CCOCC3)cc2)n1` [Example 70, 1-(4-((6-((1H-indazol-5-yl)amino)pyrimidin-4-yl)oxy)naphthalen-1-yl)-3-(3-(tert-butyl)-1-(4-(2-morpholinoethoxy)phenyl)-1H-pyrazol-5-yl)urea]: the concentration for half-maximal inhibition (IC50) in data set [1] is 0.033 µM; in [2], 0.013 µM; in [3], 0.014 µM; in [4] it was 3.25 µM; in data set [6], 0.0027 µM; in data set [7], 0.0041 µM. Moreover, the EC50 in data set [5] amounted to 0.0025 µM. Further, in [8], the “MTT Assay Cell viability at time point in d-U937 cells 4 h” value is “−ve (−ve and +ve indicate that the value is below and above respectively, the no significant effect threshold, defined as 30% inhibition at 1 μg/mL at the time point indicated.)”. In [8], the “MTT Assay Cell viability at time point in d-U937 cells 24 h” value was “−ve (−ve and +ve indicate that the value is below and above respectively, the no significant effect threshold, defined as 30% inhibition at 1 μg/mL at the time point indicated.)”. Moreover, the “Mitosis Assay % inhibition” value in [9] is on record as 62.4%.

As to `CNC(=O)c1cc(Oc2ccc(NC(=O)Nc3ccc(Cl)c(C(F)(F)F)c3)cc2)ccn1` [Sorafenib], the inhibition at 0.5 µM in data set [10] was found to be 77%; in data set [11], 28%; in [12] it was 22%; in data set [13] it was 14%; in data set [14] it was 26%.

For `Cc1ccc(-n2nc(C(C)(C)C)cc2NC(=O)Nc2ccc(Oc3ccnc(Nc4ccc5[nH]nnc5c4)n3)c3ccccc23)cc1` [Example 36, 1-(4-((2-((1H-benzo[d][1,2,3]triazol-5-yl)amino)pyrimidin-4-yl)oxy)naphthalen-1-yl)-3-(3-(tert-butyl)-1-(p-tolyl)-1H-pyrazol-5-yl)urea], the IC50 in data set [1] stood at 0.092 µM; in [2], 0.014 µM; in data set [3], 0.075 µM; in [4] it was 2.1 µM; in [6] it was 0.0023 µM; in data set [7] it was 0.0063 µM. Besides, the EC50 in data set [5] stood at 0.0172 µM. Also, the “MTT Assay Cell viability at time point in d-U937 cells 4 h” value in [8] is “−ve (−ve and +ve indicate that the value is below and above respectively, the no significant effect threshold, defined as 30% inhibition at 1 μg/mL at the time point indicated.)”. The “MTT Assay Cell viability at time point in d-U937 cells 24 h” value in data set [8] is “−ve (−ve and +ve indicate that the value is below and above respectively, the no significant effect threshold, defined as 30% inhibition at 1 μg/mL at the time point indicated.)”. Besides, the “Mitosis Assay % inhibition” value in [9] is recorded as 41.2%.

For `COCC(=O)Nc1cc(Oc2ccc(NC(=O)Nc3cc(C(C)(C)C)nn3-c3ccc(C)cc3)c3ccccc23)ccn1` [Reference Compound, N-(4-(4-(3-(3-tert-butyl-1-p-tolyl-1H-pyrazol-5-yl)ureido)naphthalen-1-yloxy)pyridin-2-yl)-2-methoxyacetamide, reference compound], the inhibition at 0.5 µM in data set [10] was 100%; in data set [12], 100%; in [13], 95%; in data set [15] it was 70%; in data set [14], 84%. Besides, in data set [5], the EC50 amounted to 0.00013 µM. For the same molecule, in data set [7], the IC50 is 0.0021 µM. Besides, the “MTT Assay Cell viability at time point in d-U937 cells 4 h” value in [8] was “−ve (−ve and +ve indicate that the value is below and above respectively, the no significant effect threshold, defined as 30% inhibition at 1 μg/mL at the time point indicated.)”. Further, the “MTT Assay Cell viability at time point in d-U937 cells 24 h” value in data set [8] is “+ve (−ve and +ve indicate that the value is below and above respectively, the no significant effect threshold, defined as 30% inhibition at 1 μg/mL at the time point indicated.)”. Also, the “% Inhibition of neutrophil accumulation in BAL” value in [16] is recorded as 60%. The “Neutrophil numbers in BAL (+/−SEM)” value in data set [16] was 5.6 ± 0.86 ×10^5/mL.
